# Data reported in patent US20240294531A1, “COVALENT HETEROCYCLES AND USES THEREOF” (Kumquat Biosciences Inc., priority 2022, published 2024).
# Assays:
# BTK wildtype protein = BTK wildtype protein (Homo sapiens (Human), UniProt Q06187); assay: BTK wildtype HTRF displacement assay; type: binding; details: 1-hour incubation; read-out: BTK (wt) IC50
# Procedure, shortened: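 Full-length N-terminal GST-tagged BTK incubated 1 h at room temperature with compound (6 doses, four-fold dilutions from 5 μM top) plus kinase tracer 239 and anti-GST-Tb antibody. Tracer displacement read as TR-FRET 665/620 ratio, background-subtracted using no-protein control. IC50 from four-parameter fit constrained 0–100% inhibition.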
# BTK C481S protein = BTK C481S protein (Homo sapiens (Human), UniProt Q06187, C481S); assay: BTK C481S HTRF displacement assay; type: binding; details: 1-hour incubation
# Procedure, shortened: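 N-terminal GST-tagged BTK C481S (2-659) incubated 1 hour at room temperature with compound (6 doses, four-fold from 5 μM), 50 nM kinase tracer 239 and anti-GST-Tb antibody. TR-FRET 665/620 ratio, background-subtracted; IC50 from constrained four-parameter fit. KI=IC50/(1+[Tracer]/Kd), tracer Kd 54 nM.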
# Chain of BTK wildtype protein (Q06187 2-659): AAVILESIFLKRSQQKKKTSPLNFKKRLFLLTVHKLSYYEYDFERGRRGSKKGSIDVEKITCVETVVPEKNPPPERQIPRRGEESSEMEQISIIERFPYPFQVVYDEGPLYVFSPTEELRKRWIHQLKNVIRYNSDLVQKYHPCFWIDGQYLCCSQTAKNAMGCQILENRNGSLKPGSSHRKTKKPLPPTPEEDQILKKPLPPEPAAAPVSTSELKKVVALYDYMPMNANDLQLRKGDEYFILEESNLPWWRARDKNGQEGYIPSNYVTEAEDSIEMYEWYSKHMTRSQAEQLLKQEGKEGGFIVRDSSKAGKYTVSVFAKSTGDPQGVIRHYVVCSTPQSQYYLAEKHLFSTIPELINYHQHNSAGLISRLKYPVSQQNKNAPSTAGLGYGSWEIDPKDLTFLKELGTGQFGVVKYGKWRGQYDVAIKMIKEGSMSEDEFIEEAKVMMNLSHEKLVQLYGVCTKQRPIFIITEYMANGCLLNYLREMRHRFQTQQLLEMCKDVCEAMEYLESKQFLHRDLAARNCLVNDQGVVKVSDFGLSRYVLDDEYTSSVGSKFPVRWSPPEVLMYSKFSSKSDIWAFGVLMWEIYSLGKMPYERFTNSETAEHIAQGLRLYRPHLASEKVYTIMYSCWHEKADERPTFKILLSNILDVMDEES
# Chain of BTK C481S protein (Q06187 2-659 C481S): as the sequence (Q06187 2-659) above, with C480S counted along it
SMILES,IC50 (BTK wildtype protein),IC50 (BTK C481S protein)
"COc1ccc(F)cc1C(=O)NCc1ccc(-c2nn(CC3CCCCN(C(=O)n4cncn4)C3)c(N)c2C(N)=O)cc1 (stereo not drawn) [Compound 296, 1-((1-(1H-1,2,4-triazole-1-carbonyl)azepan-3-yl)methyl)-5-amino-3-(4-((5-fluoro-2-methoxybenzamido)methyl)phenyl)-1H-pyrazole-4-carboxamide]",≤ 1000 nM,≤ 1000 nM
"CN(C(=O)n1cncn1)C1CCCC1C1CCNc2c(C(N)=O)c(-c3ccc(Oc4ccccc4)cc3)nn21 (stereo not drawn) [Compound 235, 7-(2-(N-methyl-1H-1,2,4-triazole-1-carboxamido)cyclopentyl)-2-(4-phenoxyphenyl)-4,5,6,7-tetrahydropyrazolo[1,5-a] pyrimidine-3-carboxamide]",> 1000 nM,> 1000 nM
"COc1ccc(F)cc1C(=O)NCc1ccc(-c2nn(C3(CN(C)C(=O)n4cncn4)CC3)c3ncnc(N)c23)cc1 [Compound 188, N-((1-(4-amino-3-(4-((5-fluoro-2-methoxybenzamido)methyl)phenyl)-1H-pyrazolo[3,4-d]pyrimidin-1-yl)cyclopropyl)methyl)-N-methyl-1H-1,2,4-triazole-1-carboxamide]",≤ 1000 nM,> 1000 nM
"COc1ccc(F)cc1C(=O)NCc1ccc(-c2nn(CC3CCCCC3N(C)C(=O)n3cncn3)c3ncnc(N)c23)cc1 (stereo not drawn) [Compound 126, N-(2-((4-amino-3-(4-((5-fluoro-2-methoxybenzamido)methyl)phenyl)-1H-pyrazolo[3,4-d]pyrimidin-1-yl)methyl)cyclohexyl)-N-methyl-1H-1,2,4-triazole-1-carboxamide]",≤ 1000 nM,≤ 1000 nM
"CN(C(=O)n1cncn1)[C@@H]1CCC[C@@H](n2nc(-c3ccc(Oc4ccccc4)cc3)c(C(N)=O)c2N)C1 [Compound 247, N-((1R,3R)-3-(5-amino-4-carbamoyl-3-(4-phenoxyphenyl)-1H-pyrazol-1-yl)cyclohexyl)-N-methyl-1H-1,2,4-triazole-1-carboxamide]",≤ 1000 nM,≤ 1000 nM
"NC(=O)c1c(-c2ccc(Oc3ccccc3)cc2)nn2c1NCCC2[C@@H]1CCCN1C(=O)n1cncn1 (stereo partly drawn) [Compound 280, 7-((S)-1-(1H-1,2,4-triazole-1-carbonyl)pyrrolidin-2-yl)-2-(4-phenoxyphenyl)-4,5,6,7-tetrahydropyrazolo[1,5-a] pyrimidine-3-carboxamide]",> 1000 nM,≤ 1000 nM
"NC(=O)c1nn2c(c1-c1ccc(Oc3ccccc3)cc1)NCCC2C1CCCCN1C(=O)n1cncn1 (stereo not drawn) [Compound 203, 7-(1-(1H-1,2,4-triazole-1-carbonyl)piperidin-2-yl)-3-(4-phenoxy-phenyl)-4,5,6,7-tetrahydro-pyrazolo[1,5-a]pyrimidine-2-carboxamide]",> 1000 nM,> 1000 nM
"COc1ccc(F)cc1C(=O)NCc1ccc(-c2nn(-c3ccc(CN(C)C(=O)n4cncn4)cc3)c3ncnc(N)c23)cc1 [Compound 138, N-(4-(4-amino-3-(4-((5-fluoro-2-methoxybenzamido)methyl)phenyl)-1H-pyrazolo[3,4-d]pyrimidin-1-yl)benzyl)-N-methyl-1H-1,2,4-triazole-1-carboxamide]",≤ 1000 nM,≤ 1000 nM
"COc1ccc(C)cc1C(=O)NCc1ccc(-c2nn(C3CCCC(N(C)C(=O)n4cnnn4)C3)c3ncnc(N)c23)cc1 (stereo not drawn) [Compound 219, N-(3-(4-amino-3-(4-((2-methoxy-5-methylbenzamido)methyl)phenyl)-1H-pyrazolo[3,4-d]pyrimidin-1-yl)cyclohexyl)-N-methyl-1H-tetrazole-1-carboxamide]",≤ 1000 nM,≤ 1000 nM
"COC[C@H](C1CCNc2c(C(N)=O)c(-c3ccc(Oc4ccccc4)cc3)nn21)N(C)C(=O)n1cncn1 (stereo partly drawn) [Compound 156, 7-((S)-2-methoxy-1-(N-methyl-1H-1,2,4-triazole-1-carboxamido)ethyl)-2-(4-phenoxyphenyl)-4,5,6,7-tetrahydropyrazolo[1,5-a] pyrimidine-3-carboxamide]",> 1000 nM,> 1000 nM
"COc1ccc(F)cc1C(=O)NCc1ccc(-c2nn(C(CC3CCCC3)CN(C)C(=O)n3cncn3)c3ncnc(N)c23)cc1 (stereo not drawn) [Compound 206, N-(2-(4-amino-3-(4-((5-fluoro-2-methoxybenzamido)methyl)phenyl)-1H-pyrazolo[3,4-d]pyrimidin-1-yl)-3-cyclopentylpropyl)-N-methyl-1H-1,2,4-triazole-1-carboxamide]",> 1000 nM,> 1000 nM
"CN(C(=O)n1cncn1)C1CCC2C(CNc3c(C(N)=O)c(-c4ccc(Oc5ccccc5)cc4)nn32)C1 (stereo not drawn) [Compound 131, 7-(N-methyl-1H-1,2,4-triazole-1-carboxamido)-2-(4-phenoxyphenyl)-4,5,5a,6,7,8,9,9a-octahydropyrazolo [1,5-a]quinazoline-3-carboxamide]",> 1000 nM,> 1000 nM
"COc1ccc(F)cc1C(=O)NCc1ccc(-c2nn(C3CCCCC3CN(C)C(=O)n3cncn3)c3ncnc(N)c23)cc1 (stereo not drawn) [Compound 198, N-((2-(4-amino-3-(4-((5-fluoro-2-methoxybenzamido)methyl)phenyl)-1H-pyrazolo[3,4-d]pyrimidin-1-yl)cyclohexyl)methyl)-N-methyl-1H-1,2,4-triazole-1-carboxamide]",≤ 1000 nM,≤ 1000 nM
"COc1ccc(F)cc1C(=O)NCc1ccc(-c2nn(-c3cc(N(C)C(=O)n4cncn4)ccc3C)c3ncnc(N)c23)cc1 [Compound 276, N-(3-(4-amino-3-(4-((5-fluoro-2-methoxybenzamido)methyl)phenyl)-1H-pyrazolo[3,4-d]pyrimidin-1-yl)-4-methylphenyl)-N-methyl-1H-1,2,4-triazole-1-carboxamide]",≤ 1000 nM,> 1000 nM
"Cc1[nH]c2c(C(N)=O)cc(F)c(N3CCCC(N(C)C(=O)n4cncn4)C3)c2c1C (stereo not drawn) [Compound 262, 5-fluoro-2,3-dimethyl-4-(3-(N-methyl-1H-1,2,4-triazole-1-carboxamido)piperidin-1-yl)-1H-indole-7-carboxamide]",≤ 1000 nM,≤ 1000 nM
"COc1ccc(F)cc1C(=O)NCc1ccc(-c2nn(C(C)CN(C)C(=O)n3cncn3)c3ncnc(N)c23)cc1 (stereo not drawn) [Compound 226, N-(2-(4-amino-3-(4-((5-fluoro-2-methoxybenzamido)methyl)phenyl)-1H-pyrazolo[3,4-d]pyrimidin-1-yl)propyl)-N-methyl-1H-1,2,4-triazole-1-carboxamide]",≤ 1000 nM,≤ 1000 nM
"COc1ccc(F)cc1C(=O)NCc1ccc(-c2nn(C3CCC(CN(C)C(=O)n4cncn4)C3)c3ncnc(N)c23)cc1 (stereo not drawn) [Compound 111, N-((3-(4-amino-3-(4-((5-fluoro-2-methoxybenzamido)methyl)phenyl)-1H-pyrazolo[3,4-d]pyrimidin-1-yl)cyclopentyl)methyl)-N-methyl-1H-1,2,4-triazole-1-carboxamide]",≤ 1000 nM,≤ 1000 nM
"NC(=O)c1c(-c2ccc(Oc3ccccc3)cc2)nn(C2CCCCN(C(=O)n3cncn3)C2)c1N (stereo not drawn) [Compound 159, 1-(1-(1H-1,2,4-triazole-1-carbonyl)azepan-3-yl)-5-amino-3-(4-phenoxyphenyl)-1H-pyrazole-4-carboxamide]",≤ 1000 nM,≤ 1000 nM
